Assay results as given in article PMC5218480 (PLoS ONE, 2017).

Tested on: MV-4-11 cells
Experiment: Gene expression microarray analysis (Affymetrix PrimeView) and GSEA
Assay type: cell-based, human
Design: RFU PODN (11730768_x_at) / Fold change /veh PODN (11730768_x_at) / RFU LINC00158 (11744669_a_at) / Fold change /veh LINC00158 (11744669_a_at) / RFU DUSP10 (11751237_a_at) / Fold change /veh DUSP10 (11751237_a_at) / RFU ID3 (11757404_x_at) / Fold change /veh ID3 (11757404_x_at) / RFU PLEKHG5 (11737974_s_at) / Fold change /veh PLEKHG5 (11737974_s_at) / RFU LRRC4B (11730491_at) / Fold change /veh LRRC4B (11730491_at) / RFU GIMAP4 (11747438_a_at) / Fold change /veh GIMAP4 (11747438_a_at) / RFU KRT8 (11758183_x_at) / Fold change /veh KRT8 (11758183_x_at) / RFU CNN1 (11734310_a_at) / Fold change /veh CNN1 (11734310_a_at) / RFU VPS37D (11726825_at) / Fold change /veh VPS37D (11726825_at) / RFU C10orf10 (11716522_x_at) / Fold change /veh C10orf10 (11716522_x_at) / RFU KIR2DL2 /// KIR2DL4 /// KIR2DL5A /// KIR2DL5B /// KIR2DS1 /// KIR2DS2 /// KIR2DS3 /// KIR2DS4 /// KIR3DL3 /// KIR3DL3 /// KIR3DS1 (11738374_at) / Fold change /veh KIR2DL2 /// KIR2DL4 /// KIR2DL5A /// KIR2DL5B /// KIR2DS1 /// KIR2DS2 /// KIR2DS3 /// KIR2DS4 /// KIR3DL3 /// KIR3DL3 /// KIR3DS1 (11738374_at) / RFU C1QL1 (11718748_at) / Fold change /veh C1QL1 (11718748_at) / RFU TMPRSS4 (11747572_a_at) / Fold change /veh TMPRSS4 (11747572_a_at) / RFU HAMP (11756126_x_at) / Fold change /veh HAMP (11756126_x_at) / RFU RNFT2 (11725882_a_at) / Fold change /veh RNFT2 (11725882_a_at) / RFU NR4A2 (11747474_a_at) / Fold change /veh NR4A2 (11747474_a_at) / RFU ABCC12 (11746883_a_at) / Fold change /veh ABCC12 (11746883_a_at) / RFU TMEM136 (11760407_x_at) / Fold change /veh TMEM136 (11760407_x_at) / RFU CLDN22 /// WWC2 (11732394_at) / Fold change /veh CLDN22 /// WWC2 (11732394_at) / RFU HLA-DPB1 (11760878_x_at) / Fold change /veh HLA-DPB1 (11760878_x_at) / RFU SPINT1 (11716480_a_at) / Fold change /veh SPINT1 (11716480_a_at) / RFU GAP43 (11754022_s_at) / Fold change /veh GAP43 (11754022_s_at) / RFU A4GNT (11735810_at) / Fold change /veh A4GNT (11735810_at) / RFU PRB3 (11715151_x_at) / Fold change /veh PRB3 (11715151_x_at) / RFU TUBB4B (11761932_at) / Fold change /veh TUBB4B (11761932_at) / RFU CAPN14 (11732068_a_at) / Fold change /veh CAPN14 (11732068_a_at) / RFU TMCC2 (11721928_a_at) / Fold change /veh TMCC2 (11721928_a_at) / RFU IRGQ (11745062_a_at) / Fold change /veh IRGQ (11745062_a_at) / RFU FAM174B (11720279_a_at) / Fold change /veh FAM174B (11720279_a_at) / RFU TMPRSS4 (11748680_a_at) / Fold change /veh TMPRSS4 (11748680_a_at) / RFU FAM212B (11763350_a_at) / Fold change /veh FAM212B (11763350_a_at) / RFU PLEKHG5 (11743358_a_at) / Fold change /veh PLEKHG5 (11743358_a_at) / RFU ZSCAN30 (11745921_a_at) / Fold change /veh ZSCAN30 (11745921_a_at) / RFU CMKLR1 (11741424_a_at) / Fold change /veh CMKLR1 (11741424_a_at) / RFU LOC101060620 /// MAPK8IP1 (11723275_at) / Fold change /veh LOC101060620 /// MAPK8IP1 (11723275_at) / RFU SPTSSB (11747773_x_at) / Fold change /veh SPTSSB (11747773_x_at) / RFU PRSS12 (11739890_at) / Fold change /veh PRSS12 (11739890_at) / RFU BIN1 (11741810_x_at) / Fold change /veh BIN1 (11741810_x_at) / RFU WNT11 (11732464_a_at) / Fold change /veh WNT11 (11732464_a_at) / RFU C10orf10 (11716521_a_at) / Fold change /veh C10orf10 (11716521_a_at) / RFU C5orf56 (11738089_at) / Fold change /veh C5orf56 (11738089_at) / RFU CYB561 (11721691_x_at) / Fold change /veh CYB561 (11721691_x_at) / RFU ANKRD19P (11752326_a_at) / Fold change /veh ANKRD19P (11752326_a_at) / RFU OR2T12 /// OR2T33 /// OR2T8 (11738714_s_at) / Fold change /veh OR2T12 /// OR2T33 /// OR2T8 (11738714_s_at) / RFU VCAN (11748164_a_at) / Fold change /veh VCAN (11748164_a_at) / RFU JSRP1 (11732532_at) / Fold change /veh JSRP1 (11732532_at) / RFU KRTAP10-11 (11738290_x_at) / Fold change /veh KRTAP10-11 (11738290_x_at) / RFU MYO3A (11730013_a_at) / Fold change /veh MYO3A (11730013_a_at) / RFU EBF3 (11725865_a_at) / Fold change /veh EBF3 (11725865_a_at) / RFU CAMK2N1 (11719241_x_at) / Fold change /veh CAMK2N1 (11719241_x_at) / RFU C5orf56 (11738088_a_at) / Fold change /veh C5orf56 (11738088_a_at) / RFU OLFML3 (11715873_a_at) / Fold change /veh OLFML3 (11715873_a_at) / RFU LOC100653217 /// NTM (11731650_a_at) / Fold change /veh LOC100653217 /// NTM (11731650_a_at) / RFU MAPK11 (11762145_a_at) / Fold change /veh MAPK11 (11762145_a_at) / RFU FIZ1 (11724087_x_at) / Fold change /veh FIZ1 (11724087_x_at) / RFU OASL (11726364_x_at) / Fold change /veh OASL (11726364_x_at) / RFU SOX15 (11748057_x_at) / Fold change /veh SOX15 (11748057_x_at) / RFU CD79A (11719716_a_at) / Fold change /veh CD79A (11719716_a_at) / RFU HIST1H1D (11736915_at) / Fold change /veh HIST1H1D (11736915_at) / RFU CASKIN2 (11723855_a_at) / Fold change /veh CASKIN2 (11723855_a_at) / RFU LOC730098 (11760151_x_at) / Fold change /veh LOC730098 (11760151_x_at) / RFU OR4N2 (11742367_at) / Fold change /veh OR4N2 (11742367_at) / RFU PRRT2 (11749266_a_at) / Fold change /veh PRRT2 (11749266_a_at) / RFU SNX32 (11753110_a_at) / Fold change /veh SNX32 (11753110_a_at) / RFU CDHR5 (11726645_a_at) / Fold change /veh CDHR5 (11726645_a_at) / RFU RCAN1 (11760418_a_at) / Fold change /veh RCAN1 (11760418_a_at) / RFU FAM167A (11723789_a_at) / Fold change /veh FAM167A (11723789_a_at) / RFU FAM26E (11764081_at) / Fold change /veh FAM26E (11764081_at) / RFU ISYNA1 (11749810_s_at) / Fold change /veh ISYNA1 (11749810_s_at) / RFU ACY1 (11761880_at) / Fold change /veh ACY1 (11761880_at) / RFU 11764098_at / Fold change /veh 11764098_at / RFU SAMD14 (11745864_x_at) / Fold change /veh SAMD14 (11745864_x_at) / RFU NPB (11741838_a_at) / Fold change /veh NPB (11741838_a_at) / RFU TMPRSS6 (11731388_a_at) / Fold change /veh TMPRSS6 (11731388_a_at) / RFU KRTAP10-2 (11738614_at) / Fold change /veh KRTAP10-2 (11738614_at) / RFU ARHGAP8 /// PRR5-ARHGAP8 (11727945_x_at) / Fold change /veh ARHGAP8 /// PRR5-ARHGAP8 (11727945_x_at) / RFU KRTAP5-7 /// NADSYN1 (11734609_at) / Fold change /veh KRTAP5-7 /// NADSYN1 (11734609_at) / RFU RASL12 (11751679_a_at) / Fold change /veh RASL12 (11751679_a_at) / RFU CDKN2B (11736163_a_at) / Fold change /veh CDKN2B (11736163_a_at) / RFU PRF1 (11729649_at) / Fold change /veh PRF1 (11729649_at) / RFU, ZNF638 /// ZNF638-IT1 / Fold change vs veh, ZNF638 /// ZNF638-IT1 / RFU, PANK3 / Fold change vs veh, PANK3 / RFU, SH3YL1 / Fold change vs veh, SH3YL1 / RFU, ZEB2 / Fold change vs veh, ZEB2 / RFU, NRIP1 / Fold change vs veh, NRIP1 / RFU, PTTG1IP / Fold change vs veh, PTTG1IP / RFU, CAPN2 / Fold change vs veh, CAPN2 / RFU, MED14 / Fold change vs veh, MED14 / RFU, SNORA58 / Fold change vs veh, SNORA58 / RFU, C1orf63 / Fold change vs veh, C1orf63 / RFU, LRRFIP1 / Fold change vs veh, LRRFIP1 / RFU, NDUFAF7 / Fold change vs veh, NDUFAF7 / RFU, SLC12A2 / Fold change vs veh, SLC12A2 / RFU, IBTK / Fold change vs veh, IBTK / RFU, ESF1 / Fold change vs veh, ESF1 / Fold change vs veh, TMEM50B / RFU, TAOK1 / Fold change vs veh, TAOK1 / RFU, ACBD3 / Fold change vs veh, ACBD3 / RFU, TMA16 / Fold change vs veh, TMA16 / RFU, RWDD3 / Fold change vs veh, RWDD3 / RFU, BCAT1 / Fold change vs veh, BCAT1 / RFU, EDEM3 / Fold change vs veh, EDEM3 / RFU, TMEM33 / Fold change vs veh, TMEM33 / RFU, WDR75 / Fold change vs veh, WDR75 / RFU, AHCTF1 / Fold change vs veh, AHCTF1 / RFU, TFRC / Fold change vs veh, TFRC / RFU, ZDHHC17 / Fold change vs veh, ZDHHC17 / RFU, NOM1 / Fold change vs veh, NOM1 / RFU, ARL8B / Fold change vs veh, ARL8B / RFU, ZBTB11 / Fold change vs veh, ZBTB11 / RFU, TAMM41 / Fold change vs veh, TAMM41 / RFU, KIAA1704 /// LOC100996395 / Fold change vs veh, KIAA1704 /// LOC100996395 / RFU, ING1 / Fold change vs veh, ING1 / RFU, TRMT61B / Fold change vs veh, TRMT61B / RFU, FUBP3 / Fold change vs veh, FUBP3 / RFU, TP53 / Fold change vs veh, TP53 / RFU, TNKS2 / Fold change vs veh, TNKS2 / RFU, ZFP14 / Fold change vs veh, ZFP14 / RFU, ACTR2 / Fold change vs veh, ACTR2 / RFU, PPP3R1 / Fold change vs veh, PPP3R1 / RFU, PIK3R1 / Fold change vs veh, PIK3R1 / RFU, HNRNPA1 / Fold change vs veh, HNRNPA1 / RFU, RNF170 / Fold change vs veh, RNF170 / RFU, ZNF28 / Fold change vs veh, ZNF28 / RFU, RNGTT / Fold change vs veh, RNGTT / RFU, OGT / Fold change vs veh, OGT / RFU, BRD1 / Fold change vs veh, BRD1 / RFU, MARS / Fold change vs veh, MARS / RFU, ZNF655 / Fold change vs veh, ZNF655 / RFU, FAHD1 / Fold change vs veh, FAHD1 / RFU, BDP1 / Fold change vs veh, BDP1 / RFU, LRRCC1 / Fold change vs veh, LRRCC1 / RFU, ARID1A / Fold change vs veh, ARID1A / RFU, ZNF146 / Fold change vs veh, ZNF146 / RFU, ZNF330 / Fold change vs veh, ZNF330 / RFU, GPN3 / Fold change vs veh, GPN3 / RFU, C9orf123 / Fold change vs veh, C9orf123 / RFU, N4BP2L2 / Fold change vs veh, N4BP2L2 / RFU, ARFIP1 / Fold change vs veh, ARFIP1 / RFU, FAM179B / Fold change vs veh, FAM179B / RFU, BCL10 / Fold change vs veh, BCL10 / RFU, UHRF1BP1L / Fold change vs veh, UHRF1BP1L / RFU, BET1 / Fold change vs veh, BET1 / RFU, CNOT2 / Fold change vs veh, CNOT2 / RFU, ZNF268 / Fold change vs veh, ZNF268 / Fold change vs veh, ZNF507 / RFU, DGCR2 / Fold change vs veh, DGCR2 / RFU, WDSUB1 / Fold change vs veh, WDSUB1 / Fold change vs veh, HSP90B1 /// MIR3652 / RFU, ADSS / Fold change vs veh, ADSS / RFU, GK / Fold change vs veh, GK / RFU, ZNF148 / Fold change vs veh, ZNF148 / RFU, TAF9 / Fold change vs veh, TAF9 / RFU, SLC1A5 / Fold change vs veh, SLC1A5 / RFU, SLMO2 / Fold change vs veh, SLMO2 / RFU, ABCC4 / Fold change vs veh, ABCC4 / RFU, LOC101060439 /// RAP1B / Fold change vs veh, LOC101060439 /// RAP1B / RFU, RFX7 / Fold change vs veh, RFX7 / RFU, GTPBP10 / Fold change vs veh, GTPBP10 / RFU, CNEP1R1 / Fold change vs veh, CNEP1R1 / RFU, BIVM-ERCC5 /// ERCC5 / Fold change vs veh, BIVM-ERCC5 /// ERCC5 / RFU, ILF3 / Fold change vs veh, ILF3 / RFU 11762660_at / Fold change /veh 11762660_at / RFU VCAN (11757783_s_at) / Fold change /veh VCAN (11757783_s_at) / RFU DDX43 (11728927_at) / Fold change /veh DDX43 (11728927_at) / RFU KRT8 (11758188_x_at) / Fold change /veh KRT8 (11758188_x_at) / RFU NKD1 (11759106_at) / Fold change /veh NKD1 (11759106_at) / RFU SRD5A1 (11742802_a_at) / Fold change /veh SRD5A1 (11742802_a_at) / RFU TPSAB1 /// TPSB2 (11721975_s_at) / Fold change /veh TPSAB1 /// TPSB2 (11721975_s_at) / RFU GSTM3 (11746129_a_at) / Fold change /veh GSTM3 (11746129_a_at) / RFU IL23R (11737362_x_at) / Fold change /veh IL23R (11737362_x_at) / RFU TMEM51 (11727254_a_at) / Fold change /veh TMEM51 (11727254_a_at) / RFU PIWIL2 (11732686_x_at) / Fold change /veh PIWIL2 (11732686_x_at) / RFU ORM1 (11744905_x_at) / Fold change /veh ORM1 (11744905_x_at) / RFU CCDC152 (11743942_at) / Fold change /veh CCDC152 (11743942_at) / RFU ECM1 (11717891_a_at) / Fold change /veh ECM1 (11717891_a_at) / RFU IL23R (11748794_a_at) / Fold change /veh IL23R (11748794_a_at) / RFU TNFAIP8L3 (11732012_x_at) / Fold change /veh TNFAIP8L3 (11732012_x_at) / RFU MBOAT4 (11741988_at) / Fold change /veh MBOAT4 (11741988_at) / RFU 11764193_at / Fold change /veh 11764193_at / RFU TMEM53 (11763286_at) / Fold change /veh TMEM53 (11763286_at) / RFU MAGEB2 (11727129_at) / Fold change /veh MAGEB2 (11727129_at) / RFU TMEM200A (11744735_a_at) / Fold change /veh TMEM200A (11744735_a_at) / RFU CCDC152 (11751479_a_at) / Fold change /veh CCDC152 (11751479_a_at) / RFU FAM211A (11726209_a_at) / Fold change /veh FAM211A (11726209_a_at) / RFU RGS16 (11746705_a_at) / Fold change /veh RGS16 (11746705_a_at) / RFU VCAN (11755009_s_at) / Fold change /veh VCAN (11755009_s_at) / RFU RHOB (11743442_s_at) / Fold change /veh RHOB (11743442_s_at) / RFU RGS16 (11720943_a_at) / Fold change /veh RGS16 (11720943_a_at) / RFU RGS16 (11720944_at) / Fold change /veh RGS16 (11720944_at) / RFU, VPS4B / Fold change vs veh, VPS4B / RFU, CREB1 / Fold change vs veh, CREB1 / RFU, DNAJC13 / Fold change vs veh, DNAJC13 / RFU, GNAQ / Fold change vs veh, GNAQ / RFU, CDK5R1 / Fold change vs veh, CDK5R1 / RFU, ZRANB3 / Fold change vs veh, ZRANB3 / RFU, CUL4A / Fold change vs veh, CUL4A / RFU, CCNY / Fold change vs veh, CCNY / RFU, UFL1 / Fold change vs veh, UFL1 / RFU, COG3 / Fold change vs veh, COG3 / RFU, DIAPH2 / Fold change vs veh, DIAPH2 / RFU, SKA2 / Fold change vs veh, SKA2 / RFU, AFF3 / Fold change vs veh, AFF3 / RFU, LMF1 / Fold change vs veh, LMF1 / RFU, IPO11 / Fold change vs veh, IPO11 / RFU, DFFB / Fold change vs veh, DFFB / RFU, FOXP1 / Fold change vs veh, FOXP1 / RFU, CARD8 / Fold change vs veh, CARD8 / RFU, STRN3 / Fold change vs veh, STRN3 / RFU, ADK / Fold change vs veh, ADK / RFU, RASSF2 / Fold change vs veh, RASSF2 / RFU, WIPF1 / Fold change vs veh, WIPF1 / RFU, LARP1B / Fold change vs veh, LARP1B / RFU, RASA1 / Fold change vs veh, RASA1 / RFU, RB1 / Fold change vs veh, RB1 / RFU, PPFIA1 / Fold change vs veh, PPFIA1 / RFU, MAT2A / Fold change vs veh, MAT2A / RFU, CCT5 / Fold change vs veh, CCT5 / RFU, WDR92 / Fold change vs veh, WDR92 / RFU, CUX1 / Fold change vs veh, CUX1 / RFU, TTC7A / Fold change vs veh, TTC7A / RFU, TMEM135 / Fold change vs veh, TMEM135 / RFU, DEPTOR / Fold change vs veh, DEPTOR / RFU, CPM / Fold change vs veh, CPM / RFU, DNAJB6 / Fold change vs veh, DNAJB6 / RFU, CACNA2D3 / Fold change vs veh, CACNA2D3 / RFU, DTX4 / Fold change vs veh, DTX4 / RFU, TFCP2 / Fold change vs veh, TFCP2 / RFU, GMCL1 /// GMCL1P1 / Fold change vs veh, GMCL1 /// GMCL1P1 / RFU, AEBP2 / Fold change vs veh, AEBP2 / RFU, SNHG1 /// SNORD22 /// SNORD25 /// SNORD26 /// SNORD27 /// SNORD28 /// SNORD29 /// SNORD31 / Fold change vs veh, SNHG1 /// SNORD22 /// SNORD25 /// SNORD26 /// SNORD27 /// SNORD28 /// SNORD29 /// SNORD31 / Fold change (Aza/veh), C12orf56 (ProbeSet 11735607_a_at) / Fold change (ACY-1035/veh), C12orf56 (ProbeSet 11735607_a_at) / Fold change (Aza/veh), FGFR1OP (ProbeSet 11751329_s_at) / Fold change (ACY-1035/veh), FGFR1OP (ProbeSet 11751329_s_at) / Fold change (Aza/veh), VPS36 (ProbeSet 11739960_a_at) / Fold change (ACY-1035/veh), VPS36 (ProbeSet 11739960_a_at) / RFU SYPL1 (11715823_x_at) / Fold change /veh SYPL1 (11715823_x_at) / RFU IGFBP7 (11715501_s_at) / Fold change /veh IGFBP7 (11715501_s_at) / RFU REEP3 (11722064_at) / Fold change /veh REEP3 (11722064_at) / RFU IGLL1 (11728026_x_at) / Fold change /veh IGLL1 (11728026_x_at): dose or concentration left out as unconfirmed
Conditions: MV-4-11 cells, 48 hours

Nc1ccc(-c2cccs2)cc1NC(=O)c1ccc2c(c1)cc(C1CC1)n2CCN1CCOCC1 [ACY-1035]
Fold change /veh LINC00158 (11744669_a_at): 1.11
